Results as given in patent US20250092065A1, “2-(INDAZOL-5-YL)-6-(PIPERIDIN-4-YL)-1,7-NAPHTHYRIDINE DERIVATIVES AND RELATED COMPOUNDS AS MODULATORS FOR SPLICING NUCLEIC ACIDS AND FOR THE TREATMENT OF PROLIFERATIVE DISEASES” (REMIX THERAPEUTICS INC., priority 2022, published 2025).
pIC50: −log10 of the molar value. Where a name gives a salt, the structure may show the parent alone. Read-outs that look alike come from different tables or passages of the source.

Experiments:
[1] = test system: Target C; experiment: RT-qPCR canonical junction panel assay, Target C mRNA; format: cell-based; conditions: Table 4, read-out: Target C IC50 (decrease in CJ mRNA levels)
How it was run: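 A673 or K562 cells treated with compound; CJ mRNA quantified by junction-spanning RT-qPCR probe after cDNA synthesis, normalised to GAPDH, GUSB or PPIA and DMSO (2^−ΔΔCt), scaled to set ΔCt assay window; IC50 from 4-parameter fit of CJ decrease.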

[2] = test system: K562 cells; experiment: Cell Titer Glo 2.0 cell viability (toxicity) assay, K562; conditions: 500 cells/well, 72 hours
[3] = test system: MYB mRNA; experiment: RT-qPCR splicing assay, MYB mRNA canonical (CJ) and alternative (AJ) junction; format: cell-based, human; conditions: Homo sapiens; for AC50: MYB alternative junction mRNA, read-out: MYB AJ (increase in AJ mRNA, AC50)
How it was run: (§1)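 A673 or K562 cells treated 24 h at 37 °C with an 11-point 3-fold dilution series (top 10 uM, DMSO ≤0.25%). Lysates went directly to one-step RT-qPCR quantifying canonical (CJ) and alternative-exon (AJ) junctions, normalized to GAPDH, GUSB or PPIA. Values from ΔΔCt versus DMSO, RQ = 2^(−ΔΔCt), expressed as percentage response.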

[4] = test system: SMN2 mRNA; experiment: RT-qPCR splicing assay, SMN2 mRNA; format: cell-based, human; conditions: Homo sapiens, canonical junction qPCR panel, Table 4; read-out: SMN2 IC50 (decrease in CJ mRNA levels)
How it was run: as §1

[5] = test system: HTT mRNA; experiment: RT-qPCR splicing assay, HTT mRNA canonical (CJ) and alternative (AJ) junction; format: cell-based, human; conditions: Homo sapiens; for AC50: HTT alternative junction mRNA, read-out: HTT AJ (increase in AJ mRNA, AC50)
How it was run: as §1

[6] = MYB canonical junction mRNA, RT-qPCR, read-out: MYB CJ (decrease in CJ mRNA levels, IC50)
[7] = canonical junction qPCR panel, Table 4, read-out: MYB IC50 (decrease in CJ mRNA levels)
[8] = HTT canonical junction mRNA, RT-qPCR, read-out: HTT CJ (decrease in CJ mRNA levels, IC50)
[9] = canonical junction qPCR panel, Table 4, read-out: HTT IC50 (decrease in CJ mRNA levels)

| Structure (SMILES) | pIC50 [1] | pIC50 [3, 6] | pIC50 [3, 7] | pIC50 [4] | pIC50 [5, 8] | pIC50 [5, 9] | Effect of Exemplary Compounds on Cell Viability, K562 [2] | AC50 ([3]; RT-qPCR) [nM] | AC50 ([5]; RT-qPCR) [nM] |
| --- | --- | --- | --- | --- | --- | --- | --- | --- | --- |
| Cc1nc2cc(O)c(-c3ccc4nc(N5CCN[C@H](C6CC6)C5)ccc4n3)cc2o1 [Compound 421] | 6.00 to 7.00 | 6.00 to 7.00 | 6.00 to 7.00 | 6.00 to 7.00 | 6.00 to 7.00 | 6.00 to 7.00 | B (B represents 100-1000 nM) | 100 to 1000 | 100 to 1000 |
| Cc1nc2cc(O)c(-c3ccc4nc(N5CCN[C@@H](C(C)C)C5)ccc4n3)cc2o1 [Compound 422] | 5.00 to 6.00 | 6.00 to 7.00 | 6.00 to 7.00 | > 7.00 | 6.00 to 7.00 | 6.00 to 7.00 | B (B represents 100-1000 nM) | 100 to 1000 | 100 to 1000 |
| Cc1nc2cc(O)c(-c3ccc4nc(N5CCC(N)CC5)ccc4n3)cc2o1 [Compound 424] | 5.00 to 6.00 | 5.00 to 6.00 | 5.00 to 6.00 | > 7.00 | 5.00 to 6.00 | 5.00 to 6.00 | B (B represents 100-1000 nM) | 1000 to 10000 | 1000 to 10000 |
| CNC1CCN(c2ccc3nc(-c4cc5oc(C)nc5cc4O)ccc3n2)CC1 [Compound 425] | < 5.00 | 5.00 to 6.00 | 5.00 to 6.00 | 6.00 to 7.00 | 5.00 to 6.00 | 5.00 to 6.00 | B (B represents 100-1000 nM) | 1000 to 10000 | 1000 to 10000 |
| Cc1nc2c(C)c(O)c(-c3ccc4nc(N5CC[C@H](NC6CC6)C5)ncc4n3)cc2o1 [Compound 433, 6-{2-[(3S)-3-(cyclopropylamino)pyrrolidin-1-yl]pyrido[3,2-d]pyrimidin-6-yl}-2,4-dimethyl-1,3-benzoxazol-5-ol] | 6.00 to 7.00 | 6.00 to 7.00 | 6.00 to 7.00 | > 7.00 | > 7.00 | > 7.00 | B (B represents 100-1000 nM) | 100 to 1000 | < 100 |
| Cc1nc2cc(O)c(-c3ccc4nc(N5CC[C@H](NC6CC6)C5)ncc4n3)cc2o1 [Compound 435, 6-{2-[(3S)-3-(cyclopropylamino)pyrrolidin-1-yl]pyrido[3,2-d]pyrimidin-6-yl}-2-methyl-1,3-benzoxazol-5-ol] | 6.00 to 7.00 | 6.00 to 7.00 | 6.00 to 7.00 | > 7.00 | 6.00 to 7.00 | 6.00 to 7.00 | B (B represents 100-1000 nM) | 100 to 1000 | 100 to 1000 |
| Cc1nc2c(C)c(O)c(-c3ccc4nc(N5CC[C@@H](NC(C)(C)C)C5)ncc4n3)cc2o1 [Compound 436] | > 7.00 | > 7.00 | > 7.00 | > 7.00 | > 7.00 | > 7.00 | A (A represents <100 nM) | < 100 | < 100 |
| Cc1nc2c(C)c(O)c(-c3ccc4nc(N5CC[C@H](NC(C)(C)C)C5)ncc4n3)cc2o1 [Compound 437] | 6.00 to 7.00 | 6.00 to 7.00 | 6.00 to 7.00 | 6.00 to 7.00 | > 7.00 | > 7.00 | B (B represents 100-1000 nM) | 100 to 1000 | < 100 |
| Cc1c(O)c(-c2ccc3nc(N4CC[C@@H](NC5CC5)C4)ncc3n2)cc2cn(C)nc12 [Compound 438, 5-{2-[(3R)-3-(cyclopropylamino)pyrrolidin-1-yl]pyrido[3,2-d]pyrimidin-6-yl}-2,7-dimethylindazol-6-ol] | 6.00 to 7.00 | 6.00 to 7.00 | 6.00 to 7.00 | > 7.00 | > 7.00 | > 7.00 | B (B represents 100-1000 nM) | < 100 | < 100 |
| Cn1cc2cc(-c3ccc4nc(C5CCNC6(CC6)C5)ncc4n3)c(O)cc2n1 (stereo not drawn) [Compound 448, 5-(2-{4-azaspiro[2.5]octan-7-yl}pyrido[3,2-d]pyrimidin-6-yl)-2-methylindazol-6-ol] | 5.00 to 6.00 | 6.00 to 7.00 | 6.00 to 7.00 | > 7.00 | 6.00 to 7.00 | 6.00 to 7.00 | C (C represents 1000-9999 nM) | 1000 to 10000 | 1000 to 10000 |

Now from value to compound, other results behind:

| pIC50 [1] | pIC50 [3, 6] | pIC50 [3, 7] | pIC50 [4] | pIC50 [5, 8] | pIC50 [5, 9] | Structure (SMILES) | Effect of Exemplary Compounds on Cell Viability, K562 [2] | AC50 ([3]; RT-qPCR) [nM] | AC50 ([5]; RT-qPCR) [nM] |
| --- | --- | --- | --- | --- | --- | --- | --- | --- | --- |
| 6.00 to 7.00 | 6.00 to 7.00 | 6.00 to 7.00 | > 7.00 | > 7.00 | > 7.00 | Cc1c(O)c(-c2ccc3nc(N4CC[C@H](NC5CC5)C4)ncc3n2)cc2cn(C)nc12 [Compound 439, 5-{2-[(3S)-3-(cyclopropylamino)pyrrolidin-1-yl]pyrido[3,2-d]pyrimidin-6-yl}-2,7-dimethylindazol-6-ol] | B (B represents 100-1000 nM) | 100 to 1000 | < 100 |
| 6.00 to 7.00 | 6.00 to 7.00 | 6.00 to 7.00 | > 7.00 | > 7.00 | > 7.00 | Cc1nc2c(C)c(O)c(-c3ccc4cc(N5CC[C@@H](NC6CC6)C5)ncc4n3)cc2o1 [Compound 440, 6-{6-[(3R)-3-(cyclopropylamino)pyrrolidin-1-yl]-1,7-naphthyridin-2-yl}-2,4-dimethyl-1,3-benzoxazol-5-ol] | B (B represents 100-1000 nM) | 100 to 1000 | 100 to 1000 |
| 6.00 to 7.00 | 6.00 to 7.00 | 6.00 to 7.00 | > 7.00 | > 7.00 | > 7.00 | Cc1nc2c(C)c(O)c(-c3ccc4cc(N5CC[C@H](NC6CC6)C5)ncc4n3)cc2o1 [Compound 441, 6-{6-[(3S)-3-(cyclopropylamino)pyrrolidin-1-yl]-1,7-naphthyridin-2-yl}-2,4-dimethyl-1,3-benzoxazol-5-ol] | B (B represents 100-1000 nM) | 100 to 1000 | 100 to 1000 |
| 5.00 to 6.00 | 6.00 to 7.00 | 6.00 to 7.00 | > 7.00 | 5.00 to 6.00 | 5.00 to 6.00 | Cn1cc2cc(-c3ccc4cc(N5CCC(NC(C)(C)C)C5)ncc4n3)c(O)cc2n1 (stereo not drawn) [Compound 449, 5-{6-[3-(tert-butylamino)pyrrolidin-1-yl]-1,7-naphthyridin-2-yl}-2-methylindazol-6-ol] | B (B represents 100-1000 nM) | 100 to 1000 | 1000 to 10000 |
| 5.00 to 6.00 | 5.00 to 6.00 | 5.00 to 6.00 | 5.00 to 6.00 | 5.00 to 6.00 | 5.00 to 6.00 | Cc1nc2cc(O)c(-c3ccc4cc(N5CC[C@H](NC(C)(C)C)C5)ncc4n3)cc2o1 [Compound 450] | C (C represents 1000-9999 nM) | 1000 to 10000 | 1000 to 10000 |
| 5.00 to 6.00 | > 7.00 | > 7.00 | > 7.00 | > 7.00 | > 7.00 | Cc1c(O)c(-c2cc(Cl)c3cc(N4CCNCC4)cc(C)c3n2)cc2cn(C)nc12 [Compound 482, 5-[4-chloro-8-methyl-6-(piperazin-1-yl)577yrrolidi-2-yl]-2,7-dimethylindazol-6-ol hydrochloride] | A (A represents <100 nM) | < 100 | 100 to 1000 |
| 5.00 to 6.00 | 6.00 to 7.00 | 6.00 to 7.00 | > 7.00 | < 5.00 | < 5.00 | Cc1cc2nc(-c3cc4cn(C)nc4c(C)c3O)cc(Cl)c2cc1N1CCNCC1 [Compound 484, 5-[4-chloro-7-methyl-6-(piperazin-1-yl)586yrrolidi-2-yl]-2,7-dimethylindazol-6-ol] | B (B represents 100-1000 nM) | 100 to 1000 | > 10000 |
| 5.00 to 6.00 | 6.00 to 7.00 | 6.00 to 7.00 | > 7.00 | 5.00 to 6.00 | 5.00 to 6.00 | CNC1CCN(c2cc3c(Cl)cc(-c4cc5cn(C)nc5c(C)c4O)nc3cc2C)C1 (stereo not drawn) [Compound 486, 5-{4-chloro-7-methyl-6-[3-(methylamino)pyrrolidin-1-yl]quinolin-2-yl}-2,7-dimethylindazol-6-ol] | B (B represents 100-1000 nM) | 100 to 1000 | 1000 to 10000 |
